Converted amounts (≈) assume the structure as drawn. Read-outs that look alike come from different tables or passages of the source.
How the values were obtained:
[1] = Short-term (bench-top) stability of GMC1 plasma and urine samples; format: physicochemical, rat; details: read-out: Mean Recovery ± SD, short-term stability; for recovery at 2 h: bench-top 2 h; for recovery at 4 h: bench-top 4 h; for recovery at 6 h: bench-top 6 h
Description: The short-term (bench-top) stability of GMC1 plasma and urine samples was evaluated by analyzing three sets each of GMC1 plasma and urine samples freshly prepared and placed on the bench-top for 2, 4, and 6 h, respectively. All the samples were compared with freshly prepared samples of the same concentration.

[2] = Freeze-thaw cycle stability of GMC1 plasma and urine samples; format: physicochemical, rat; details: read-out: Mean Recovery ± SD, freeze-thaw cycle stability
Description: The freeze-thaw cycle stability of GMC1 plasma and urine samples was evaluated by comparing QC plasma and urine samples exposed to three cycles of freeze (at −80° C.) and thaw (room temperature) to freshly prepared QC samples at the same concentration. Average recoveries from freeze-thawed plasma samples were 106±5.9%, 98.5±3.7% and 94.1±2.9% for GMC1 concentrations of 10, 200 and 400 ng/mL respectively. Average recovery from urine samples were 113±8.9%, 101±3.9%, and 86.6±7.5% for 10, 200 and 400 ng/mL GMC1 concentrations respectively.

[3] = Processed sample (on-instrument or auto-sampler) stability; format: physicochemical; details: rat
Description: The stability of processed samples (on-instrument or auto-sampler stability) was also evaluated by comparing freshly prepared plasma and urine QC samples to samples placed on the auto-sampler for 2, 4, and 6 h respectively. One set of the plasma and urine QC samples was extracted with methanol containing IS, and another set with pure methanol without IS.

[4] = Solubility of GMC1 in selected solvents by the shaker method; format: physicochemical; details: thermodynamic from solid, read-out: Mean Solubility ± SD
Description: Solubility information in various solvents is important in developing a suitable intravenous formulation of GMC1 for preclinical and clinical studies. The solubility of GMC1 in water, ethanol, polyethylene glycol 300 and 400, propylene glycol monocapryrate type I (Capyrol 90®), dimethyl sulfoxide (DMSO), dimethyl acetamide (DMA), Tween 80®, Labrasol®, Labrafac®, soybean oil, and oleic acid were determined by the shaker method. Briefly, excess amount of GMC1 was added to each of the selected solvents in a scintillation vial and shook using a reciprocating shaker at room temperature for 72 h. The samples were centrifuged at 14,000 rpm for 10 min and subsequently filtered through a 0.22 μm filtration unit, the resulting filtrate analyzed by LC/MS/MS to determine the GMC1 dissolved in the solvents. The study was conducted in triplicate.

[5] = Water-octanol partition co-efficient (log P), shaker method; format: physicochemical
Description: The water-octanol partition co-efficient (log P) of GMC1, a measure of how hydrophilic (“water-loving”) or hydrophobic (“water-fearing”) GMC1 is, was also evaluated using the shaker method.

[6] = Pharmacokinetic study of the GMC1 co-solvent formulation, IV bolus; format: in vivo, male Sprague Dawley rats; details: rat, single 2 mg/kg IV bolus, three compartment model; for half-life / Vd: iv, 2 mg/kg
Description: Pharmacokinetic Studies of the GMC1 Co-Solvent Formulation. Pharmacokinetic study, which elucidates the fate of GMC1 in living systems, was performed. The pharmacokinetic study also verifies the applicability of the LC/MS/MS assay method and the formulation. A rat model was employed and male Sprague Dawley rats were selected as an animal model based on the similarity to humans in metabolism. Four male Sprague Dawley rats (body weight: 300-350 g) were cannulated through the jugular vein under anesthesia (using a cocktail of ketamine:acepromazine:xylazine at a ratio of 50:3.3:3.3 mg/kg). On the following day, the optimal co-solvent formulation of GMC1 (consisting of Labrasol® 50:50 PEG 300, and GMC1 10 mg/mL) was diluted ten times in normal saline to 1 mg/mL. Each rat was administered a 2 mg/kg IV bolus dose of GMC1. Heparinized blood samples were withdrawn from each rat at 5, 10, 15, 30, 60, 120, 240, 480, 720, 1440, 2880, 3240 min after injection. The blood samples were centrifuged at 14,000 rpm for 6 min and the supernatant plasma obtained and stored at −80° C. until analysis. Urine samples were also collected at 0, 60, 240, 480, 720, and 1440 min. The plasma and urine samples were analyzed (within 7 days) using the LC/MS/MS method described herein to obtain the concentration of GMC1.
The pharmacokinetic parameters for each rat were determined with Phoenix WinNonlin 6.3 software (Pharsight Corporation, Mountain View, Calif., USA) using a three compartment, which best described the fit for the IV bolus administration of GMC1, based on the observed and predicted fits of the plasma concentration versus time plot, the reduction in the sums of squares, and the Akaike's information criterion (AIC) for comparing compartmental models (Yamaoka et al., Journal of Pharmacokinetics and Biopharmaceutics 1978, 6(2):165-75). The three-compartment model is described by the equation: Ct=A·e^−αt+B·e^−βt+C·e^−γt where A, B and C are the coefficients, α, β, and γ are alpha, beta and gamma phase rate constants respectively, and Ct is the plasma concentration of GMC1 at time, t.
The weighting scheme of concentration^−2 (Y^−2) was used to determine the model that best fits the individual profiles.

[7] = tested on: 22Rv1 prostate cancer cell; test: 22Rv1 prostate cancer cell proliferation; format: cell-based
androgen receptor (AR) = details: variety of cell lines; cited from earlier work
[8] = tested on: glucocorticoid receptor (GR); details: variety of cell lines; cited from earlier work
[9] = processed plasma sample (methanol extract), plasma extracted with methanol containing IS, read-out: Mean Recovery ± SD, auto-sampler stability, With IS
[10] = processed plasma sample (methanol extract), plasma extracted with pure methanol, read-out: Mean Recovery ± SD, auto-sampler stability, No IS
[11] = processed urine sample (methanol extract), urine extracted with methanol containing IS, read-out: Mean Recovery ± SD, auto-sampler stability, With IS
[12] = processed urine sample (methanol extract), urine extracted with pure methanol, read-out: Mean Recovery ± SD, auto-sampler stability, No IS

For `COc1ccc(/C=N/NC(=O)CSc2nc3ccccc3[nH]2)cc1` [GMC1], the recovery at 2 h ([1]; rat plasma) was 97.4 ± 8.89%, the recovery at 4 h ([1]; rat plasma) was 88.9 ± 2.63% and the recovery at 6 h ([1]; rat plasma) was 80.1 ± 5.71%. The recovery at 2 h ([1]; rat urine) was 94.2 ± 4.66%, the recovery at 4 h ([1]; rat urine) was 93.9 ± 0.76% and the recovery at 6 h ([1]; rat urine) was 93.7 ± 1.23%. It also gave a recovery at 10 ng/mL ([2]; rat plasma, three cycles −80° C./room temperature) of 106 ± 5.9%, a recovery at 200 ng/mL ([2]; rat plasma, three cycles) of 98.5 ± 3.7% and a recovery at 400 ng/mL ([2]; rat plasma, three cycles) of 94.1 ± 2.9%. For the same compound, the recovery at 10 ng/mL ([2]; rat urine, three cycles) was 113 ± 8.9%, the recovery at 200 ng/mL ([2]; rat urine, three cycles) was 101 ± 3.9% and the recovery at 400 ng/mL ([2]; rat urine, three cycles) was 86.6 ± 7.5%. For the same compound, the recovery at 2 h [3, 9] was 89.9 ± 4.7%, the recovery at 4 h [3, 9] was 97.5 ± 1.5% and the recovery at 6 h [3, 9] was 96.2 ± 5.6%. The recovery at 2 h [3, 10] was 94.7 ± 7.9%, the recovery at 4 h [3, 10] was 99.7 ± 4.5% and the recovery at 6 h [3, 10] was 98.4 ± 6.2%. For the same compound, the recovery at 2 h [3, 11] was 96.4 ± 2.8%, the recovery at 4 h [3, 11] was 98.5 ± 1.1% and the recovery at 6 h [3, 11] was 97.1 ± 4.8%. The recovery at 2 h [3, 12] was 96.1 ± 2.4%, the recovery at 4 h [3, 12] was 89.7 ± 8.8% and the recovery at 6 h [3, 12] was 95.2 ± 2.2%. For the same compound, the solubility at 72 h ([4]; DMSO, organic solvent or mixture, DMSO, room temperature) was ≥ 100 mg/mL, the solubility at 72 h ([4]; Labrafac, oil or lipid, Labrafac, room temperature) was 1.2 ± 0.01 mg/mL (≈ 3.53 mM) and the solubility at 72 h ([4]; Labrasol, aqueous with cosolvent or surfactant or cyclodextrin, Labrasol, room temperature) was 36.4 ± 2.9 mg/mL (≈ 107 mM). The solubility at 72 h ([4]; PEG 300, organic solvent or mixture, PEG 300, room temperature) was 36.6 ± 1.12 mg/mL (≈ 108 mM), the solubility at 72 h ([4]; PEG 400, organic solvent or mixture, PEG 400, room temperature) was 35.7 ± 1.41 mg/mL (≈ 105 mM) and the solubility at 72 h ([4]; Tween 80, aqueous with cosolvent or surfactant or cyclodextrin, Tween 80, room temperature) was 20.3 ± 5.39 mg/mL (≈ 59.6 mM). For the same compound, the solubility at 72 h ([4]; dimethyl acetamide, organic solvent or mixture, Dimethyl acetamide, room temperature) was ≥ 100 mg/mL, the solubility at 72 h ([4]; ethanol, organic solvent or mixture, Ethanol, room temperature) was 6.3 ± 0.29 mg/mL (≈ 18.5 mM) and the solubility at 72 h ([4]; oleic acid, oil or lipid, Oleic Acid, room temperature) was 2.2 ± 0.02 mg/mL (≈ 6.46 mM). It also gave a solubility at 72 h ([4]; soybean oil, oil or lipid, Soy bean oil, room temperature) of 1.1 ± 0.02 mg/mL (≈ 3.23 mM), a logP [5] of 3.48 ± 0.03 and an AUC(0-inf) ([6]; male, Sprague Dawley, plasma) of 3900 ng·h/mL. For the same compound, the Cmax ([6]; male, Sprague Dawley, plasma) was 7640 ± 1980 ng/mL, the clearance ([6]; male, Sprague Dawley, plasma, read-out: Cl (total body clearance)) was 8.9 ± 1.66 mL/min/kg and the half-life ([6]; male, Sprague Dawley, plasma, read-out: T1/2α (distribution half-life of α-phase)) was 0.11 ± 0.036 h. It also gave a half-life ([6]; male, Sprague Dawley, plasma, read-out: T1/2β (elimination half-life of β-phase)) of 1.23 ± 0.42 h, a half-life ([6]; male, Sprague Dawley, plasma, read-out: T1/2γ (elimination half-life of γ-phase)) of 19.7 ± 5.09 h and a Vd ([6]; male, Sprague Dawley, plasma, read-out: V1 (volume of distribution of central compartment)) of 0.278 ± 0.0642 L/kg. For the same compound, the Vd ([6]; male, Sprague Dawley, plasma, read-out: Vss (volume of distribution at steady state)) was 7.73 ± 1.22 L/kg, the “A (coefficient of α-phase)” value [6] was 6528.9 ± 1996.01 ng/mL and the “B (coefficient of β-phase)” value [6] was 1038.5 ± 546.09 ng/mL. The “C (coefficient of γ-phase)” value [6] was 75.1 ± 20.24 ng/mL, the “V2 (volume of distribution of first peripheral compartment)” value [6] was 0.5595 ± 0.20603 L/kg and the “V3 (volume of distribution of second peripheral compartment)” value [6] was 6.8665 ± 1.11754 L/kg. The “concentration range inhibiting cell proliferation” value [7] was “low micromolar”, the “concentration range inhibiting receptor activity” value (androgen receptor (AR)) was “low to mid micro-molar” and the “concentration range inhibiting receptor activity” value [8] was “low to mid micro-molar”.

From patent US10010534B2, “Intravenous formulation and LC/MS/MS analysis method for GMC1” (THE BOARD OF REGENTS OF THE UNIVERSITY OF TEXAS SYSTEM, priority 2016, dated 2018)
